Reference: patent publication US20060235036A1, “Vanilloid receptor ligands and their use in treatments” (priority 2005, published 2006)
Structures can show the parent of a compound that is named as a salt.

target: T1, human VR1 (Homo sapiens, UniProt Q8NER1); experiment: Human VR1 Capsaicin Antagonist Assay (45Ca2+ uptake, CHO cells stably expressing human VR1); assay type: cell-based; conditions: capsaicin stimulus, Calcium-45 uptake
T1 construct: expressed in transfected cells
Protocol: Compounds may be assayed using Chinese Hamster Ovary cell lines stably expressing either human VR1 or rat VR1 under a CMV promoter. Cells can be cultured in Growth Medium, routinely passaged at 70% confluency using trypsin and plated in the assay plate 24 hours prior to compound evaluation. Possible Growth Medium: • DMEM, high glucose (Gibco 11965-084). • 10% Dialyzed serum (Hyclone SH30079.03). • 1× Non-Essential Amino Acids (Gibco 11140-050). • 1× Glutamine-Pen-Strep (Gibco 10378-016). • Geneticin, 450 μg/mL (Gibco 10131-035). Compounds can be diluted in 100% DMSO and tested for activity over several log units of concentration [40 μM-2 pM]. Compounds may be further diluted in HBSS buffer (pH 7.4) 0.1 mg/mL BSA, prior to evaluation. Final DMSO concentration in assay would be 0.5%. Each assay plate can be controlled with a buffer only and a known antagonist compound (either capsazepine or one of the described VR1 antagonists). Activation of VR1 can be achieved in these cellular assays using either a capsaicin stimulus (ranging from 0.1-1 μM) or by an acid stimulus (addition of 30 mM Hepes/Mes buffered at pH 4.1). Compounds may also tested in an assay format to evaluate their agonist properties at VR1. • Capsaicin Antagonist Assay: Compounds may be pre-incubated with cells (expressing either human or rat VR1) for 2 minutes prior to addition of Calcium-45 and Capsaicin and then left for an additional 2 minutes prior to compound washout. Capsaicin (0.5 […]) can be added in HAM's F12, 0.1 mg/mL BSA, 15 mM Hepes at pH 7.4. Final ^45Ca (Amersham CES3-2 mCi) at 10 μCi/mL. • Acid Antagonist Assay: Compounds can be pre-incubated with cells (expressing either human or rat VR1) for 2 minutes prior to addition of Calcium-45 in 30 mM Hepes/Mes buffer (Final Assay pH 5) and then left for an additional 2 minutes prior to compound washout. Final ^45Ca (Amersham CES3-2 mCi) at 10 μCi/mL. • Agonist Assay: Compounds can be incubated with cells (expressing either human or rat VR1) for 2 minutes in the presence of Calcium-45 prior to compound washout. Final ^45Ca (Amersham CES3-2 mCi) at 10 μCi/mL. • Compound Washout and Analysis: Assay plates can be washed using an ELX405 plate washer (Bio-Tek Instruments Inc.) immediately after functional assay. One can wash 3× with PBS Mg2^+/Ca^2+ free, 0.1 mg/mL BSA, aspirating between washes. Plates may be read using a MicroBeta Jet (Wallac Inc.). Compound activity may then calculated using appropriate computational algorithms.

T1 sequence (Q8NER1 whole entry): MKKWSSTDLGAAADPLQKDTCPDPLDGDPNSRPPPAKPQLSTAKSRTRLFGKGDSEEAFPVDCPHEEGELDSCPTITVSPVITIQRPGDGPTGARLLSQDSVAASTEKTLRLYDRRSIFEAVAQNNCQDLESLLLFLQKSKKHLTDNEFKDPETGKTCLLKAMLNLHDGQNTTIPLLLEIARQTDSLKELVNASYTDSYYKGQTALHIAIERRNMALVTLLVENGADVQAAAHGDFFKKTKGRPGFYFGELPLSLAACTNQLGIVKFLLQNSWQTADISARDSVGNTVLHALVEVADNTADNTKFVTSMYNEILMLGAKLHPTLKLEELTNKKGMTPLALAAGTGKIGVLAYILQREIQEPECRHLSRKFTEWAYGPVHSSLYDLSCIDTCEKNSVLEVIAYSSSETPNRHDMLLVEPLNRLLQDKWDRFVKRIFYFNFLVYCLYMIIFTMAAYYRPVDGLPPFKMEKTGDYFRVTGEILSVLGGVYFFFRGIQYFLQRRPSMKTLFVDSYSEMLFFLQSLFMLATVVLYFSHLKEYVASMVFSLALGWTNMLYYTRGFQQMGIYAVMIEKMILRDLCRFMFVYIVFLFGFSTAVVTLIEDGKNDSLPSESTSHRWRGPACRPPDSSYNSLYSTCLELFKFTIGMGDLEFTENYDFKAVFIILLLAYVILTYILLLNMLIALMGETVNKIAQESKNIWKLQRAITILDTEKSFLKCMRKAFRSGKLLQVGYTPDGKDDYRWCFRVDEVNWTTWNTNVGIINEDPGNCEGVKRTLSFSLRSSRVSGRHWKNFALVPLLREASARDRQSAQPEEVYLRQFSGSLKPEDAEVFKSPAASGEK

IC50, < 100 nM:
CC1CC[C@@H](C(=O)Nc2cc(C(F)(F)F)ccc2-c2cc(Nc3cccc4c3CC(O)CC4)ncn2)N1 (mixture of isomers) [Example 4, (2S, 5R,S, 7R,S)—N-(2-(6-(7-Hydroxy-5,6,7,8-tetrahydronaphthalen-1-ylamino)pyrimidin-4-yl)-5-(trifluoromethyl)phenyl)-5-methylpyrrolidine-2-carboxamide hydrochloride]
CC(C)N1C(C)CC[C@H]1C(=O)Nc1cc(C(F)(F)F)ccc1-c1cc(Nc2cccc3c2CC(O)CC3)ncn1 (mixture of isomers) [Example 5, (2S, 5R,S, 7R,S)—N-(2-(6-(7-Hydroxy-5,6,7,8-tetrahydronaphthalen-1-ylamino)pyrimidin-4-yl)-5-(trifluoromethyl)phenyl)-1-isopropyl-5-methylpyrrolidine-2-carboxamide hydrochloride]
CC(C)CN1C(C)CC[C@H]1C(=O)Nc1cc(C(F)(F)F)ccc1-c1cc(Nc2cccc3c2CC(O)CC3)ncn1 (mixture of isomers) [Example 6, (2S, 5R,S, 7R,S)—N-(2-(6-(7-Hydroxy-5,6,7,8-tetrahydronaphthalen-1-ylamino)pyrimidin-4-yl)-5-(trifluoromethyl)phenyl)-1-isobutyl-5-methylpyrrolidine-2-carboxamide hydrochloride]
CC(C)CN1CCCCC1CNc1nc(C(F)(F)F)ccc1-c1cc(Nc2cccc3c2CC(O)CC3)ncn1 (mixture of isomers) [Example 1, (2R,S)-8-(6-(2-(((2R,S)-1-Isobutylpiperidin-2-yl)methylamino)-6-(trifluoro-methyl)pyridin-3-yl)pyrimidin-4-ylamino)-1,2,3,4-tetrahydronaphthalen-2-ol hydrochloride]
CC(C)(C)OC(=O)N1CCC[C@H]1C(=O)Nc1cc(C(F)(F)F)ccc1-c1cc(Nc2cccc3c2C[C@@H](O)CC3)ncn1 (mixture of isomers) [Example 2, (2S)-tert-Butyl 2-((2-(6-((7S)-7-hydroxy-5,6,7,8-tetrahydro-naphthalen-1-ylamino)pyrimidin-4-yl)-5-(trifluoromethyl)phenyl)-carbamoyl)-pyrrolidine-1-carboxylate and (2S)-tert-Butyl 2-((2-(6-((7S)-7-hydroxy-5,6,7,8-tetrahydro-naphthalen-1-ylamino)pyrimidin-4-yl)-5-(trifluoromethyl)phenyl)-carbamoyl)-pyrrolidine-1-carboxylate]
CC(C)N1CCC[C@H]1C(=O)Nc1cc(C(F)(F)F)ccc1-c1cc(Nc2cccc3c2C[C@@H](O)CC3)ncn1 (mixture of isomers) [Example 3, (2S)—N-(2-(6-(7S)-7-Hydroxy-5,6,7,8-tetrahydronaphthalen-1-ylamino)pyrimidin-4-yl)-5-(trifluoromethyl)phenyl)-1-isopropylpyrrolidine-2-carboxamide hydrochloride and (2S)—N-(2-(6-(7R)-7-Hydroxy-5,6,7,8-tetrahydro-naphthalen-1-ylamino)pyrimidin-4-yl)-5-(trifluoromethyl)phenyl)-1-isopropylpyrrolidine-2-carboxamide hydrochloride]
CC(C)N1CCC[C@H]1C(=O)Nc1cc(C(F)(F)F)ccc1-c1cc(Nc2cccc3c2C[C@H](O)CC3)ncn1 (mixture of isomers) [Example 3, (2S)—N-(2-(6-(7S)-7-Hydroxy-5,6,7,8-tetrahydronaphthalen-1-ylamino)pyrimidin-4-yl)-5-(trifluoromethyl)phenyl)-1-isopropylpyrrolidine-2-carboxamide hydrochloride and (2S)—N-(2-(6-(7R)-7-Hydroxy-5,6,7,8-tetrahydro-naphthalen-1-ylamino)pyrimidin-4-yl)-5-(trifluoromethyl)phenyl)-1-isopropylpyrrolidine-2-carboxamide hydrochloride]
